The test system of one assay is Alternaria. Put plainly: Essential oil components against Alternaria growth (saturated cotton swab suspended above culture). It counts as cell-based. To be noted: pure essential oil component. Here is the method:
Antifungal activity of the essential oil components against Rhizoctonia and Pythium will be tested by means previously used to evaluate Alternaria growth. Briefly, a cotton swab saturated with the oil is suspended above a culture of the test pathogen. Fungal dry weight is then determined. Appropriate controls are performed.

In a further assay the test system is Sclerotinia. Put plainly: Essential oil components / ground herbage against Sclerotinia and its sclerotia. To be noted: pure essential oil component. The class given is cell-based.

Data on five compounds can be found in patent US20060194698A1, “Use of herbs as a delivery system for bioactive phytochemicals” (priority 2003, published 2006).

`Cc1ccc(C(C)C)cc1O` [carvacrol]: the “growth of Alternaria” value in the assay on Alternaria is “completely inhibit growth”. In addition, in the assay with Sclerotinia, the “activity against the sclerotia of Sclerotinia” value (“activity against the sclerotia” for short) is reported as “inhibitory activity” and the “growth of Sclerotinia” value is reported as “completely inhibit growth”.

On to `Cc1ccc(C(C)C)cc1` [cymene, p-cymene], for which the “growth of Alternaria” value in the assay with Alternaria is given as “reduce the growth”.

For `CC(C)=CCC/C(C)=C/CO` [geraniol], the “growth of Alternaria” value in the assay with Alternaria is listed as “completely inhibit growth”. Besides, in the assay on Sclerotinia, the “activity against the sclerotia” value is “inhibitory activity” and the “growth of Sclerotinia” value is reported as “completely inhibit growth”.

With `C=C(C)[C@H]1CC=C(C)CC1` [limonene], the “growth of Alternaria” value in the assay with Alternaria was “inhibit the growth of Alternaria, but not as effectively as cymene”.

As to `Cc1ccc(C(C)C)c(O)c1` [thymol], the “growth of Alternaria” value with Alternaria is on record as “completely inhibit growth”. Further, in the assay with Sclerotinia, the “activity against the sclerotia” value is “inhibitory activity” and the “growth of Sclerotinia” value was “completely inhibit growth”.
